Source: ChEMBL document CHEMBL1201862, “PubChem BioAssay data set” (2004)
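Growth conditions: 96-well plates. Treatment: test compound, 48 hours, 5 concentrations. Analysis: linear interpolation between bracketing concentrations; unreached endpoints set to highest concentration. Abbreviation: GI50, concentration required for 50% inhibition of growth.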 Activity calls are given as the source filed them. No stated cut-off is given here; in the data, active = GI50 up to about 1.1 µM and inactive = higher.

Legend:
Assay in all cases: NCI tumour cell line growth inhibition, 48 h
[1] = system: SW-620
[2] = system: MCF7
[3] = system: HCT-116
[4] = system: SK-MEL-28
[5] = system: SF-268
[6] = system: RXF 393
[7] = system: K562
[8] = system: CCRF-CEM
[9] = system: T47D
[10] = system: SK-MEL-5
[11] = system: ACHN
[12] = system: MDA-MB-435
[13] = system: SNB-75
[14] = system: HOP-62
[15] = system: RPMI-8226
[16] = system: BT-549
[17] = system: CAKI-1
[18] = system: SK-MEL-2
[19] = system: SNB-19
[20] = system: DU-145
[21] = system: MOLT-4
[22] = system: NCI-H460
[23] = system: OVCAR-5
[24] = system: OVCAR-8
[25] = system: SF-295
[26] = system: Hs-578T
[27] = system: MDA-MB-231
[28] = system: LOX IMVI
[29] = system: HCC 2998
[30] = system: Malme-3M
[31] = system: EKVX
[32] = system: OVCAR-3
[33] = system: SR
[34] = system: MDA-N
[35] = system: SK-OV-3
[36] = system: M14
[37] = system: KM12
[38] = system: SN12C
[39] = system: U-251
[40] = system: HCT-15
[41] = system: 786-0
[42] = system: PC-3
[43] = system: UACC-62
[44] = system: SF-539
[45] = system: HL-60
[46] = system: UACC-257
[47] = system: A498
[48] = system: UO-31
[49] = system: OVCAR-4
[50] = system: HT-29
[51] = system: TK-10
[52] = system: IGROV-1
[53] = system: NCI-H226
[54] = system: COLO 205
[55] = system: NCI-H23
[56] = system: NCI/ADR-RES
[57] = system: A549

SMILES: C=CCCCC1(C)CCCCNC1=O (configuration not stated)
- GI50 [1]: > 10 µM (inactive)
- GI50 [2]: > 10 µM (inactive)
- GI50 [3]: > 10 µM (inactive)
- GI50 [4]: > 10 µM (inactive)
- GI50 [5]: > 10 µM (inactive)
- GI50 [6]: > 10 µM (inactive)
- GI50 [7]: > 10 µM (inactive)
- GI50 [8]: > 10 µM (inactive)
- GI50 [9]: > 10 µM (inactive)
- GI50 [10]: > 10 µM (inactive)
- GI50 [11]: > 10 µM (inactive)
- GI50 [12]: > 10 µM (inactive)
- GI50 [13]: > 10 µM (inactive)
- GI50 [14]: > 10 µM (inactive)
- GI50 [15]: > 10 µM (inactive)
- GI50 [16]: > 10 µM (inactive)
- GI50 [17]: > 10 µM (inactive)
- GI50 [18]: > 10 µM (inactive)
- GI50 [19]: > 10 µM (inactive)
- GI50 [20]: > 10 µM (inactive)
- GI50 [21]: > 10 µM (inactive)
- GI50 [22]: > 10 µM (inactive)
- GI50 [23]: > 10 µM (inactive)
- GI50 [24]: > 10 µM (inactive)
- GI50 [25]: > 10 µM (inactive)
- GI50 [26]: > 10 µM (inactive)
- GI50 [27]: > 10 µM (inactive)
- GI50 [28]: > 10 µM (inactive)
- GI50 [29]: > 10 µM (inactive)
- GI50 [30]: > 10 µM (inactive)
- GI50 [31]: > 10 µM (inactive)
- GI50 [32]: > 10 µM (inactive)
- GI50 [33]: > 10 µM (inactive)
- GI50 [34]: > 10 µM (inactive)
- GI50 [35]: > 10 µM (inactive)
- GI50 [36]: > 10 µM (inactive)
- GI50 [37]: > 10 µM (inactive)
- GI50 [38]: > 10 µM (inactive)
- GI50 [39]: > 10 µM (inactive)
- GI50 [40]: > 10 µM
- GI50 [41]: > 10 µM (inactive)
- GI50 [42]: > 10 µM (inactive)
- GI50 [43]: > 10 µM (inactive)
- GI50 [44]: > 10 µM (inactive)
- GI50 [45]: > 10 µM (inactive)
- GI50 [46]: > 10 µM (inactive)
- GI50 [47]: > 10 µM (inactive)
- GI50 [48]: > 10 µM (inactive)
- GI50 [49]: > 10 µM (inactive)
- GI50 [50]: > 10 µM (inactive)
- GI50 [51]: > 10 µM (inactive)
- GI50 [52]: > 10 µM (inactive)
- GI50 [53]: > 10 µM (inactive)
- GI50 [54]: > 10 µM (inactive)
- GI50 [55]: > 10 µM (inactive)
- GI50 [56]: > 10 µM (inactive)
- GI50 [57]: > 10 µM (inactive)
